The record followed here is a melting point compilation (Tetko et al.; mined from patent text by program, amines drawn as free bases though some values may be those of a salt).

As to `O=C(NCC1CCCC1)NC1CCN(CC23CC(c4ccccc42)c2ccccc23)CC1`, the melting point (usually the temperature of the solid-liquid transition) was in the range of 197 to 198 °C.

In turn, `COc1cc(C(=O)C=Cc2ccncc2)ccc1OCC(=O)Nc1nc2ccccc2s1` showed a melting point of 206 to 207 °C.

On to `COC12C=CC(CC1)C1=C2C(=O)c2c(O)ccc(O)c2C1=O` (stereo not given), for which the melting point was in the range of 239 to 241 °C. Take `Cc1nc2cccc(NC(=O)CCl)c2c(=O)n1C1CCC(=O)NC1=O` (stereo not given): the melting point was in the range of 275 to 277 °C. As for `Cn1cc(C(=O)Nc2ccccc2-c2cccc(C#N)c2)c(C(F)(F)F)n1`, the figure is 76 to 78 °C. `COc1ccccc1NC(=O)Nc1nc(Nc2ccccc2-c2ccccc2)nc(N(CCC(=O)O)CCc2ccccn2)n1` showed a melting point of 225 to 227 °C. For `CN1CCc2c(CO)csc2C(c2ccccc2)C1` (stereo not given), the melting point amounted to 115 °C. In turn, `COc1cccc2c(Nc3ccccc3C)nc(N3CCCC3)nc12` registered a melting point of 181 to 183 °C.

Turning to `COC(=O)C(=O)NCCSC(c1ccccc1)c1ccccc1`, the melting point lay within 88 to 89 °C. As for `CC1(C)Cc2c(c(N3CCCC3)nc3sc4c(NCc5ccc(S(N)(=O)=O)cc5)ncnc4c23)CO1`, the figure is 295 °C; as for `COC(=O)c1ccc(S(=O)(=O)N2CC[C@H](OS(C)(=O)=O)C2)n1C`, 79 to 81 °C. Consider `Cn1c(C(=O)OCc2ccccc2)c(-c2ccc(F)cc2)c2cccnc2c1=O`, for which the melting point fell in the range of 217 to 218 °C. For `CSc1nn2c(Cl)cc(CN3CCN(C)CC3)nc2c1S(=O)(=O)c1ccccc1`, the melting point lay within 113 to 116 °C. `CC=CC=CC(=O)N1CC1C#N` (stereo not given) gave a melting point of 56 to 58 °C.

In the case of `Cn1cc2c(n1)Nc1ccc(Cl)cc1NC2=S`, the melting point is greater than 260 °C. `CCCCCCCCOC(C)c1ccc(-c2ccc(C(=O)O)cc2)cc1` (single isomer, unassigned; (+)) gave a melting point of 139 to 140 °C. `O=[N+]([O-])c1cc(S(=O)(=O)NC(CO)CO)sc1Cl` gave a melting point of 132 °C. Then `CCC(=O)c1cc(C2(c3cccc(-c4cccnc4F)c3)N=C(N)N(C)C2=O)cn1CC(F)(F)F` (stereo not given), with 108 to 110 °C; and `CC1CC(c2ccc(CCCCN)cc2)=NNC1=O` (stereo not given), with 118 to 120 °C; and `CCOC(=O)/C(=C\c1ccc([N+](=O)[O-])cc1)P(=O)(OCC)OCC`, with 60 to 61 °C. In turn, `CSc1nc2ccc(C(F)(F)F)cc2[nH]1` showed a melting point of 145 to 146 °C.

`O=C(O)CCc1ccc(OCCn2c(=O)sc3cc(Cc4ccccc4)ccc32)cc1` returned a melting point of 158 to 163 °C. With `CCOC(=O)C(=O)CC(=O)c1cn(Cc2ccncc2)c2ccccc2c1=O`, the melting point fell in the range of 168 to 169 °C. `COCN1C(C)=NC(C)=C(C(=O)NCCCN2CCC(C(=O)OC)(c3ccccc3)CC2)C1c1ccc(F)c(F)c1` (stereo not given) gave a melting point of 53 to 57 °C. In turn, `COc1cc(CCl)c(CCl)cc1OCc1ccccc1` gave a melting point of 114 to 116 °C. As for `CCOC(=O)c1cnn2c1c(S)nc1c(C)nn(C)c12`, the figure is 189 to 191 °C. `N#CCN1c2ccc([N+](=O)[O-])cc2CS1(=O)=O` came in with a melting point of 200 to 202 °C. With `Oc1ccc(-c2nc3ccc(O)cc3c(-c3ccc(F)cc3)c2Cl)cc1`, the melting point was in the range of 295 to 296 °C. On to `CCN(CC)CCNC(=O)N1CCCC(S(=O)(=O)c2ccc(Cl)cc2)C1` (stereo not given), for which the melting point lay in the range of 141 to 142 °C. `O=C1CC(c2csc(-n3ccnc3)n2)=Nc2ccc(-c3ccccc3F)cc2N1` showed a melting point of 194 to 197 °C.

In turn, `O=[N+]([O-])c1ccc2nc(-c3ccccc3)cc(Cl)c2c1` had a melting point of 166 to 167 °C.

As to `CC1Cc2cc3c(cc2C(c2ccc([N+](=O)[O-])cc2)=NN1C1=NCCS1)OCO3` (stereo not given), the melting point lay within 185 to 187 °C. As for `CCCCS(=O)(=O)c1cn(C)c2ccccc2c1=O`, the melting point fell in the range of 107 to 108 °C. Consider `CC(C)(C)c1cc(O)cc(C(C)(C)C)c1C=C1SC(NCO)=NC1=O`, for which the melting point fell in the range of 177 to 179 °C. With `CS(=O)(=O)N[C@@H]1CCCC[C@H]1Nc1nc(Nc2ccc3c(c2)CN(CCO)CCS3)ncc1Cl`, the melting point is 76 to 86 °C. In the case of `Cc1nc2cc(S(=O)(=O)n3c(CCC(=O)O)cc4cc(C(F)(F)F)ccc43)ccc2s1`, the melting point fell in the range of 235 to 236 °C. For `COc1cc(Nc2c(C#N)cnc3cc4cc(OC)c(OCCN5CCC(O)CC5)cc4cc23)c(Cl)cc1Cl`, the melting point was 150 to 160 °C.

With `CSC(=S)N1Cc2[nH]c3ccccc3c2CC1CCO` (stereo not given), the melting point lay within 166 to 167 °C. Then `Cc1cnc(C)n2c1c(CCN1CCC(NC(=O)c3ccccc3)CC1)c1ccccc12`, with 233 to 234 °C; and `Cc1cccc2c1CCN(C1CN3CCC1CC3)C2=O` (racemic), with greater than 270 °C. As for `O=C(O)CCc1cc2ccccc2c(-c2ccccc2)n1`, the figure is 146 °C; as for `CCc1cc(Br)cc(NC(=O)C=NO)c1`, 176 to 178 °C; as for `CCN(CC)CCOc1ccc(Oc2ccc(S(C)(=O)=O)cc2)cc1`, 92.5 to 94 °C. As for `O=C1N(Cc2ncccc2C(F)F)c2ccccc2C12COc1cc3c(cc12)OCCO3` (stereo not given), the figure is 181 to 182 °C; as for `CC(=O)c1ccc2c(c1)S(=O)(=O)c1ccccc1O2`, 163 to 165 °C; as for `CC(C)=CCCC(C)=CCCC(C)=CCCC(C)=CC=C1SC(=S)N(CC(=O)O)C1=O`, 35 to 37 °C. `COc1cccc2cc(C(=O)OCC(C)C)[nH]c12`: the melting point was in the range of 100 to 101 °C. As for `O=C(C=Cc1ccc(Cl)cc1)C=Cc1ccc(Cl)cc1`, the figure is 187 to 189 °C. For the molecule `CCCNC(=O)NCCCCN1CCC(CNC(=O)c2cc(Cl)c(N)cc2OC)CC1`, the melting point was 114 to 115 °C. `Cn1ccnc1CC(O)C(F)(F)F` (stereo not given) came in with a melting point of 146 to 148 °C. `O=C(NCC12CC3CC(CC(C3)C1)C2)c1cc(-c2nccnc2N2CCC(C(=O)O)CC2)ccc1Cl` gave a melting point of 136 to 140 °C. As for `NC(C(=O)N(N)c1ccc2ccccc2c1)c1ccccc1` (stereo not given), the figure is 176 to 178 °C. `CC(=O)NC1=NN(c2ccccc2)CC1` showed a melting point of 190 to 191 °C.

`NCc1ccsc1CC(=O)O` came in with a melting point of 194 to 195 °C. Molecule `COCCn1nc2c(N)nc3ccccc3c2c1CC(C)(C)O` registered a melting point of 171 to 172 °C. On to `CC(=O)NN1CCC(c2ccc(-c3cccc(N)n3)cc2)CC1`, for which the melting point lay in the range of 224 to 227 °C. Regarding `O=C(Nc1cc(-c2nc(-c3ccco3)no2)ccc1Cl)OCC(Cl)(Cl)Cl`, the melting point lay within 114 to 116 °C. Regarding `CCOC(=O)c1cc(=O)c2c(OCC(O)COc3ccc(C(C)(C)C)cc3)cccc2o1` (stereo not given), the melting point was in the range of 99 to 102 °C. Molecule `COc1cc2nc(N)nc(-c3cc(I)c(O)c(I)c3)c2cc1OC` showed a melting point of 259 to 260 °C. In turn, `CN1Cc2c(C(=O)OC(C)(C)C)ncn2-c2cccc(Br)c2C1=O` registered a melting point of 207 to 208 °C. As to `Cc1cc(C(=O)NS(=O)(=O)Cc2ccccc2C(F)(F)F)nc(Cl)n1`, the melting point lay within 198 to 199 °C.

As to `c1ccc2cc(OCCNC3CCCCC3)ccc2c1`, the melting point was 89 °C. `CSc1sc2ccccc2c1C=O` registered a melting point of 50 to 53 °C. `Cc1nn(-c2c(Cl)cc(C(F)(F)F)cc2Cl)cc1C#C[Si](C)(C)C` yielded a melting point of 76 to 78 °C.

As for `N#Cc1c(CBr)c(C#N)c(CBr)c(C#N)c1CBr`, the melting point came out at 120 °C.

Molecule `Nc1nonc1NCCCOc1cccc(CN2CCCCC2)c1` returned a melting point of 87 to 88 °C. Then `Cc1[nH]c(=S)n(Nc2ccc(Cl)cc2)c1-c1ccccc1`, with 212 to 214 °C. On to `CCCCCCCCCCCCCCN(O)CCCCCCCCCCCCCC`, for which the melting point lay in the range of 94 to 96 °C. For the molecule `OCc1coc(-c2cccs2)n1`, the melting point lay in the range of 98 to 99 °C.

The molecule `O=C(Oc1cccc(OC(=O)c2cc(O)c(O)c(O)c2)c1)c1cc(O)c(O)c(O)c1` displayed a melting point of 194 to 195 °C. Molecule `Cc1cnc(CCCC#N)c([N+](=O)[O-])c1` had a melting point of 53 to 55 °C.

For `CS(=O)(=O)c1ccc(C2CC(=O)C(C(=O)c3ccc(Cl)cc3[N+](=O)[O-])C(=O)N2)cc1` (stereo not given), the melting point fell in the range of 296 to 299 °C.

`Cc1c(S(=O)(=O)C(F)(F)F)cnn1-c1c(Cl)cc(C(F)(F)F)cc1Cl`: the melting point lay within 83 to 85 °C. Molecule `O=C(C=Cc1ccccn1)N1CCc2c([nH]c3ccccc23)C1c1ccc2c(c1)OCO2` (stereo not given) returned a melting point of 135 to 141 °C. As for `CC(=O)S[C@H]1NC(=O)[C@H]1NC(=O)Cc1ccccc1`, the figure is 110 to 111 °C; as for `CC(C)(Oc1cccc(C(=O)c2ccc(Cl)cc2)c1)C(=O)O`, 144 °C; as for `CCCCCc1ccccc1C=CC=C1SC(=S)N(CC(=O)O)C1=O`, 203 to 207 °C. `CCCCCN1C(=O)C2(COc3cc4c(cc32)CCO4)c2ccccc21` (stereo not given) had a melting point of 128 to 129 °C. Turning to `O=C(Nc1cc(C(F)(F)F)cc(C(F)(F)F)c1)c1cc(Cl)cnc1O`, the melting point was greater than 270 °C. `Cc1ccc(S(=O)(=O)OCC2COc3ccc4ccccc4c3O2)cc1` (stereo not given) yielded a melting point of 122 to 124 °C. The molecule `COc1ccc(Br)c(C(Cl)=NNS(=O)(=O)c2ccccc2)c1` came in with a melting point of 104 to 106 °C. As for `O=Cc1ccc(Cl)cc1C1(c2ccccc2F)OCCO1`, the melting point fell in the range of 103 to 105 °C. Turning to `O=C(O)C(Cl)(Cl)CCCCCCCCCCBr`, the melting point was in the range of 49 to 51 °C.

As for `CC(=NOCCO)c1ccc(N(C)S(=O)(=O)c2ccccc2)cc1`, the melting point lay in the range of 76 to 77 °C. `COC(C)(CN(c1c(C)cccc1Cl)S(C)(=O)=O)OC` gave a melting point of 84 °C. Then `CCOC(=O)c1cnn2c1c(N1CCN(C)CC1)nc1ccccc12`, with 234 to 236 °C. In turn, `CS(=O)(=O)c1nc2c(F)cccc2s1` came in with a melting point of 160 °C. Take `CC(C)CCNC(=O)c1ccccc1-c1ccccc1CNC(=O)c1ccccc1`: the melting point was 147 °C.

`O=C1c2ccccc2C(=O)N1OCc1ccco1` returned a melting point of 145 °C.

Molecule `COCC1(CCCCCCCCCCCCC2(C(=O)O)CC2)CC1` came in with a melting point of 36.4 to 37.6 °C.
